Measurements reported in US8686044B2, “Amide derivative, pest control agent containing the amide derivative, and use of the amide derivative” (Mitsui Chemicals Agro, Inc., priority 2008, dated 2014).

Legend:
Assay type in all cases: in vivo
[1] = test system: Rhipicephalus sanguineus; assay: Insecticidal test for Rhipicephalus sanguineus (treated glass petri dish, Table A6); conditions: adults of Rhipicephalus sanguineus, 18 hour exposure, examined after 48 hours, in single
Experimental: Insecticidal Test for Rhipicephalus sanguineus
0.5 ml of a solution of acetone, the active ingredient, prepared to the prescribed dose was added dropwise into a glass petri dish with a diameter of 10 cm, and the acetone was evaporated at room temperature. About 10 adults of Rhipicephalus sanguineus per dish were added, and the dish was covered by another glass petri dish that was treated with the active ingredient in the same manner described above. After 18 hour exposure to the test substance, the adults were transferred into a glass petri dish that was not treated with the active ingredient. After 48 hours of the exposure, the conditions of the adults were examined and classified into “alive” and “dead (including a moribund condition)” to determine the death rate (in single).
As the comparative compounds, said Compounds (B), (C), and (D), and the following Compound (F) disclosed in WO2009/080203, and fipronil were used.

[2] = test system: Spodoptera litura; assay: Pesticidal test against Spodoptera litura (cabbage leaf dip); conditions: foliar, 144 h, concentration 1 ppm, 2-stage larvae, examined after 6 days, 25° C., read-out: pesticidal rate
In short: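 Cabbage leaf pieces dipped 30 seconds in compound solution at a predetermined concentration and air-dried, then offered to second-stage larvae, five per group in two replicates. Held at 25° C. Living and dead larvae counted after 6 days.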

[3] = test system: Plutella xylostella; assay: Pesticidal test against Plutella xylostella (cabbage leaf dip); conditions: foliar, 144 h, concentration 1 ppm, 2-stage larvae, examined after 6 days, 25° C., read-out: pesticidal rate
In short: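 Second-stage larvae (5 per group, two replicates) were released onto air-dried cabbage leaf discs that had been immersed for 30 seconds in compound solution at a set concentration. Mortality was scored after 6 days at 25° C.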

[4] = test system: Adoxophyes honmai; assay: Pesticidal test against Adoxophyes honmai (artificial feed dip); conditions: 144 h, 2-stage larvae, examined after 6 days, 25° C., read-out: pesticidal rate; for pest or weed control at 1 ppm: concentration 1 ppm; for pest or weed control at 10 ppm: concentration 10 ppm
In short: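 Second-instar larvae, five per group in duplicate, were released onto air-dried feed slices previously immersed for 30 s in compound solution at a set concentration. Mortality was scored on day 6 at 25° C.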

[5] = test system: Choristoneura magnanima; assay: Pesticidal test against Choristoneura magnanima (artificial feed dip); conditions: 144 h, 2-stage larvae, examined after 6 days, 25° C., read-out: pesticidal rate; for pest or weed control at 1 ppm: concentration 1 ppm
In short: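 Second-stage larvae, five per group in duplicate, fed artificial diet that had been immersed 30 s in test solution at a predetermined concentration and air-dried. Mortality scored at day 6, 25° C.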

[6] = test system: Helicoverpa armigera; assay: Pesticidal test against Helicoverpa armigera (cabbage leaf disk dip); conditions: foliar, 72 h, concentration 1 ppm, 2-stage larvae, examined after 3 days, 25° C., read-out: pesticidal rate
In short: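 Cabbage leaf disks were dipped for 30 s in test solution at a set concentration and air-dried. Second-instar larvae were placed one per hole and held at 25 °C, with live and dead counts taken after 3 days. Five larvae per group were tested in two replicates.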

[7] = test system: Laodelphax striatellus; assay: Pesticidal test against Laodelphax striatellus (rice seedling spray); conditions: 144 h, concentration 100 ppm, 3-stage larvae, examined after 6 days, 25° C., read-out: pesticidal rate
In short: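 Rice seedlings sprayed with 2.5 ml acetone solution of compound at a predetermined concentration, air-dried, then infested with third-stage Laodelphax striatellus larvae in capped water-containing tubes at 25 °C. Living and dead insects counted after 6 days; ten larvae per group, two replicates.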

[8] = test system: Musca domestica; assay: Pesticidal test against Musca domestica (petri dish dry film); conditions: 24 h, concentration 100 ppm, female adults, examined after 1 day, 25° C., read-out: pesticidal rate
In short: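 Female adult houseflies were confined at 25° C in capped 9 cm petri dishes coated with an air-dried film from 1 ml acetone solution of compound (predetermined concentration). Mortality was scored 1 day later, two replicates of five per group.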

[9] = test system: Blattella germanica; assay: Pesticidal test against Blattella germanica (petri dish dry film); conditions: 24 h, concentration 100 ppm, female adults, examined after 1 day, 25° C., read-out: pesticidal rate
In short: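 Acetone solution of test compound at a predetermined concentration dried as a film in a 9 cm petri dish; female adult cockroaches released onto it and kept at 25° C. Living and dead counted after 1 day; five insects per group, two replicates.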

[10] = test system: Coptotermes formosanus; assay: Pesticidal test against Coptotermes formosanus (treated filter paper); conditions: 120 h, concentration 30 ppm, examined after 5 days of treatment, 28° C., read-out: pesticidal rate
Experimental: Pesticidal Test against Coptotermes formosanus
20 μl of an acetone solution in which a test compound had been prepared at a predetermined concentration was added dropwise to the filter paper having a diameter of […] included in a polypropylene cup, and air-dried, and then 20 μl of water was added thereto. Coptotermes formosanus was released and the cup was capped. They were left to stand in a thermostatic chamber at 28° C., and the numbers of the living pests and the dead pests were examined after 5 days of treatment. The test was carried out with ten larvae per group in two replicates.

SMILES | death rate ([1]; 0.673 mg/m^2) | death rate ([1]; 2.69 mg/m^2) | death rate ([1]; 10.8 mg/m^2) | pest or weed control at 1 ppm [2] | pest or weed control at 1 ppm [3] | pest or weed control at 1 ppm [4] | pest or weed control at 1 ppm [5] | pest or weed control at 1 ppm [6] | pest or weed control at 100 ppm [7] | pest or weed control at 100 ppm [8] | pest or weed control at 100 ppm [9] | pest or weed control at 10 ppm [4] | pest or weed control at 10 ppm ([5]; concentration 10 ppm) | pest or weed control at 30 ppm [10]
CCc1cc(C(F)(C(F)(F)F)C(F)(F)F)cc(C)c1NC(=O)c1cccc(NC(=O)C2CC2)c1 [compound (F)] | 0.0% | 0.0% | 0.0% | – | – | – | – | – | – | – | – | – | – | –
O=C(Nc1cccc(C(=O)Nc2c(I)cc(C(F)(C(F)(F)F)C(F)(F)C(F)(F)F)cc2C(F)(F)F)c1F)c1ccc(F)cc1 (centres unmarked) [6-1811] | – | – | – | ≥ 70% | ≥ 70% | ≥ 70% | ≥ 70% | ≥ 70% | ≥ 70% | ≥ 70% | ≥ 70% | – | – | –
CN(C(=O)c1ccc(Cl)nc1)c1cccc(C(=O)Nc2c(I)cc(C(F)(C(F)(F)F)C(F)(F)F)cc2I)c1F [7-1303] | – | – | – | ≥ 70% | ≥ 70% | ≥ 70% | ≥ 70% | ≥ 70% | ≥ 70% | ≥ 70% | ≥ 70% | – | – | –
CN(C(=O)c1ccc(Cl)nc1)c1cccc(C(=O)Nc2c(I)cc(C(F)(C(F)(F)F)C(F)(F)C(F)(F)F)cc2C(F)(F)F)c1F (centres unmarked) [7-1851] | – | – | – | ≥ 70% | ≥ 70% | – | ≥ 70% | ≥ 70% | ≥ 70% | ≥ 70% | ≥ 70% | ≥ 70% | – | –
O=C(Nc1cccc(C(=O)Nc2c(I)cc(C(F)(C(F)(F)F)C(F)(F)F)cc2C(F)(F)F)c1)c1ccc(F)cc1 [6-427] | – | – | – | ≥ 70% | ≥ 70% | ≥ 70% | ≥ 70% | ≥ 70% | ≥ 70% | ≥ 70% | ≥ 70% | – | – | –
O=C(Nc1c(I)cc(C(F)(C(F)(F)F)C(F)(F)F)cc1C(F)(F)F)c1cccc(NC(=O)c2cccnc2Cl)c1 [6-460, 2-chloro-N-(3-(2-iodo-4-(perfluoropropan-2-yl)-6-(trifluoromethyl)phenylcarbamoyl)phenyl)nicotinamide] | – | – | – | ≥ 70% | ≥ 70% | ≥ 70% | – | ≥ 70% | ≥ 70% | ≥ 70% | – | – | ≥ 70% | ≥ 70%
O=C(Nc1c(Br)cc(C(F)(C(F)(F)F)C(F)(F)F)cc1C(F)(F)F)c1cccc(NC(=O)c2c(F)cccc2F)c1F [6-1596] | – | – | – | ≥ 70% | ≥ 70% | ≥ 70% | ≥ 70% | ≥ 70% | ≥ 70% | ≥ 70% | ≥ 70% | – | – | –
O=C(Nc1cccc(C(=O)Nc2c(Br)cc(C(F)(C(F)(F)F)C(F)(F)C(F)(F)F)cc2C(F)(F)F)c1F)c1ccccc1 (centres unmarked) [6-1652] | – | – | – | ≥ 70% | ≥ 70% | ≥ 70% | ≥ 70% | ≥ 70% | ≥ 70% | ≥ 70% | – | – | – | ≥ 70%
N#Cc1cccc(C(=O)Nc2cccc(C(=O)Nc3c(I)cc(C(F)(C(F)(F)F)C(F)(F)C(F)(F)F)cc3I)c2F)c1 (centres unmarked) [6-1358] | – | – | – | ≥ 70% | ≥ 70% | ≥ 70% | ≥ 70% | ≥ 70% | ≥ 70% | ≥ 70% | ≥ 70% | – | – | –
CN(C(=O)c1ccc(Cl)nc1)c1cccc(C(=O)Nc2c(I)cc(C(F)(C(F)(F)F)C(F)(F)F)cc2C(F)(F)F)c1F [7-1773] | – | – | – | ≥ 70% | ≥ 70% | – | ≥ 70% | ≥ 70% | ≥ 70% | ≥ 70% | ≥ 70% | ≥ 70% | – | –
CN(C(=O)c1cccc(F)c1)c1cccc(C(=O)Nc2c(I)cc(C(F)(C(F)(F)F)C(F)(F)F)cc2I)c1F [7-1262] | – | – | – | ≥ 70% | ≥ 70% | ≥ 70% | ≥ 70% | ≥ 70% | ≥ 70% | ≥ 70% | ≥ 70% | – | – | –
CN(C(=O)c1ccccc1)c1cccc(C(=O)Nc2c(I)cc(C(F)(C(F)(F)F)C(F)(F)F)cc2C(F)(F)F)c1F [7-1730] | – | – | – | ≥ 70% | ≥ 70% | ≥ 70% | ≥ 70% | ≥ 70% | ≥ 70% | ≥ 70% | – | – | – | ≥ 70%
CN(C(=O)c1cccc(C#N)c1)c1cccc(C(=O)Nc2c(I)cc(C(F)(C(F)(F)F)C(F)(F)F)cc2C(F)(F)F)c1 [7-444] | – | – | – | ≥ 70% | ≥ 70% | – | ≥ 70% | ≥ 70% | ≥ 70% | ≥ 70% | ≥ 70% | ≥ 70% | – | –
N#Cc1cccc(C(=O)Nc2cccc(C(=O)Nc3c(I)cc(C(F)(C(F)(F)F)C(F)(F)F)cc3C(F)(F)F)c2F)c1 [6-1750] | – | – | – | ≥ 70% | ≥ 70% | ≥ 70% | ≥ 70% | ≥ 70% | ≥ 70% | ≥ 70% | ≥ 70% | – | – | –
CN(C(=O)c1cccc(C#N)c1)c1cccc(C(=O)Nc2c(I)cc(C(F)(C(F)(F)F)C(F)(F)F)cc2I)c1F [7-1280] | – | – | – | ≥ 70% | ≥ 70% | ≥ 70% | ≥ 70% | ≥ 70% | ≥ 70% | ≥ 70% | ≥ 70% | – | – | –
CN(C(=O)c1cccc(C#N)c1)c1cccc(C(=O)Nc2c(I)cc(C(F)(C(F)(F)F)C(F)(F)F)cc2C(F)(F)F)c1F [7-1750] | – | – | – | ≥ 70% | ≥ 70% | ≥ 70% | ≥ 70% | ≥ 70% | ≥ 70% | ≥ 70% | ≥ 70% | – | – | –
O=C(Nc1cccc(C(=O)Nc2c(I)cc(C(F)(C(F)(F)F)C(F)(F)F)cc2C(F)(F)F)c1F)c1ccccc1 [6-1730] | – | – | – | ≥ 70% | ≥ 70% | ≥ 70% | ≥ 70% | ≥ 70% | ≥ 70% | ≥ 70% | ≥ 70% | – | – | –
